In US9822086B2, “Process for the preparation of vortioxetine salts” (Egis Gyogyszergyar Zrt., priority 2014, dated 2017):
Blank lines part the entries; values can stand above or below the molecule they belong to.

Assay: Particle size distribution (Malvern Mastersizer 3000) of starting and vortex-mill ground salts
Format: physicochemical
Description: The vortioxetine salts according to the present invention can be ground preferably in a vortex mill, if necessary. Such active ingredients ground in a vortex mill are used in the pharmaceutical compositions according to examples 20-23.
The distribution of the particle size is measured on a Malvern Mastersizer 3000 apparatus under the following conditions: […]

[1] = dispersing pressure 2.0 bar, hemicitrate salt
[2] = dispersing pressure 2.0 bar, monooxalate salt

Characteristic particle size d10 (dispersing pressure 4.0 bar): 1.4 (±2.2%) μm
Characteristic particle size d50 (dispersing pressure 4.0 bar): 10.8 (±1.6%) μm
Characteristic particle size d90 (dispersing pressure 4.0 bar): 98.6 (±4.3%) μm
Molecule: Br.Cc1ccc(Sc2ccccc2N2CCNCC2)c(C)c1 [Vortioxetine-hydrobromide, 1-[2-(2,4-dimethyl-phenylsulfanyl)-phenyl]-piperazine hydrobromide salt, reference compound]

Characteristic particle size d10 (dispersing pressure 2.0 bar): 0.4 (±0.5%) μm
Characteristic particle size d50 (dispersing pressure 2.0 bar): 2.1 (±0.7%) μm
Characteristic particle size d90 (dispersing pressure 2.0 bar): 6.2 (±1.0%) μm
Molecule: Br.Cc1ccc(Sc2ccccc2N2CCNCC2)c(C)c1 [Vortioxetine-hydrobromide ground, 1-[2-(2,4-dimethyl-phenylsulfanyl)-phenyl]-piperazine hydrobromide salt, reference compound]

Characteristic particle size d10 [2]: 2.0 (±0.3%) μm
Characteristic particle size d50 [2]: 6.8 (±0.5%) μm
Characteristic particle size d90 [2]: 21.14 (±0.7%) μm
Molecule: Cc1ccc(Sc2ccccc2N2CCNCC2)c(C)c1.O=C(O)C(=O)O [Vortioxetine-monooxalate, 1-[2-(2,4-dimethyl-phenylsulfanyl)-phenyl]-piperazine monooxalate salt]

Characteristic particle size d10 [2]: 0.7 (±0.5%) μm
Characteristic particle size d50 [2]: 2.2 (±0.7%) μm
Characteristic particle size d90 [2]: 5.9 (±0.9%) μm
Molecule: Cc1ccc(Sc2ccccc2N2CCNCC2)c(C)c1.O=C(O)C(=O)O [Vortioxetine-monooxalate ground, 1-[2-(2,4-dimethyl-phenylsulfanyl)-phenyl]-piperazine monooxalate salt]

More lines, now with the values behind:

Molecule: 1-[2-(2,4-dimethyl-phenylsulfanyl)-phenyl]-piperazine hemicitrate salt [Vortioxetine-hemicitrate ground]
Characteristic particle size d10 [1]: 0.6 (±0.7%) μm
Characteristic particle size d50 [1]: 2.9 (±0.2%) μm
Characteristic particle size d90 [1]: 9.1 (±1.1%) μm

Molecule: 1-[2-(2,4-dimethyl-phenylsulfanyl)-phenyl]-piperazine hemicitrate salt [Vortioxetine-hemicitrate]
Characteristic particle size d10 [1]: 5.3 (±0.4%) μm
Characteristic particle size d50 [1]: 25.9 (±0.7%) μm
Characteristic particle size d90 [1]: 83.6 (±0.4%) μm

Molecule: 1-[2-(2,4-dimethyl-phenylsulfanyl)-phenyl]-piperazine L-(+)-mandelic acid salt [Vortioxetine-L-mandalate]
Characteristic particle size d10 (dispersing pressure 2.0 bar): 8.6 (±0.2%) μm
Characteristic particle size d50 (dispersing pressure 2.0 bar): 41.5 (±0.2%) μm
Characteristic particle size d90 (dispersing pressure 2.0 bar): 114 (±0.9%) μm

Molecule: 1-[2-(2,4-dimethyl-phenylsulfanyl)-phenyl]-piperazine L-(+)-mandelic acid salt [Vortioxetine-L-mandalate ground]
Characteristic particle size d10 (dispersing pressure 2.0 bar): 0.5 (±0.6%) μm
Characteristic particle size d50 (dispersing pressure 2.0 bar): 2.1 (±0.2%) μm
Characteristic particle size d90 (dispersing pressure 2.0 bar): 5.0 (±0.9%) μm
